Assay results taken from US20080161348A1, “PTX3-GENE EXPRESSION INHIBITOR” (KOWA CO., LTD., priority 2002, published 2008).

Columns and labels:
[1] = system: PTX3 gene; assay: PTX3 gene expression analysis by GeneChip array in HUVEC; format: cell-based, human; conditions: 8 hours after addition, control 1113.0
Procedure: (§1) Two days after inoculation of normal human umbilical vein endothelial cells (HUVEC) or human coronary artery smooth muscle cells (HCASMC) at 3×10^5 cells/10 cm dish, pitavastatin calcium or atorvastatin calcium was added to 1.1 μmol/L and 6.6 μmol/L, respectively. Dimethyl sulfoxide, a solvent for both of the active ingredients, was added to a control (final concentration: 0.0066 v/v %). Eight hours after the addition, total RNA was extracted with “ISOGEN” (trade mark, product of NIPPON GENE CO., LTD.). The following procedures was conducted in accordance with the procedures manual of Affymetrix. Inc. Described specifically, mRNA was isolated from the above-obtained total RNA, and based on the mRNA, cDNA was synthesized. Further, biotin-labeled cRNA was synthesized by in vitro transcription. Subsequent to purification, the biotin-labeled cRNA was subjected to fragmentation by heat treatment to prepare fragmented cRNA for use in a gene expression analysis.
(§2) Gene expression analysis method: The fragmented CRNA was poured into “Hugene Human FL Array” (trade name, product of Affymetrix, Inc.), and hybridization was conducted at 45° C. for 16 hours. […] The information was analyzed by “GENECHIP SOFTWARE” (trade name, product of Affymetrix, Inc.) to compare expression levels.

[2] = system: PTX3 gene; assay: PTX3 gene expression analysis by GeneChip array in HCASMC; format: cell-based, human; conditions: 8 hours after addition, control 1028.3
Procedure: as §1, §2

[3] = system: PTX3 gene; assay: PTX3 gene expression by RT-PCR and agarose gel electrophoresis in HUVEC; format: cell-based, human; conditions: both 8 hours later and 24 hours later
Procedure: (§3) Two days after inoculation of HUVEC at 3×10^5 cells/10 cm dish, pitavastatin calcium or atorvastatin calcium was added to 1.1 μmol/L and 6.6 μmol/L, respectively. To ascertain possible concentration dependency of PTX3 gene expression suppressing effect of pitavastatin, pitavastatin calcium was also added to 1 μmol/L and 10 μmol/L upon elapsed time of 2 days after inoculation of HUCEC or HCASMC at 3×10^5 cells/10 cm dish. To controls under the respective conditions, dimethyl sulfoxide, a solvent for both of the active ingredients, was added (final concentration: 0.0066 v/v %) Eight or 24 hours after the addition, total RNA was extracted with “ISOGEN” (trade mark, product of NIPPON GENE CO., LTD.). The total RNA was subjected to RT-PCR in a manner known per se in the art, and amplified DNA fragments were subjected to agarose gel electrophoresis to compare expression levels. • Reaction conditions and the like for PT-PCR:
(§4) PT reaction: Conducted using “RNA PCR Core Kit” (trade name, product of Roche Molecular Systems, Inc.).
PCR: Using “Expanded™ High Fidelity PCR System” (trade name, manufactured of Boehringer Mannheim AG), thermal cycling was conducted through 25 cycles according to the following schemes: 95° C. for 1 minute—57° C. for 1 minute—72° C. for 1 minute. Incidentally, as PCR primers, the followings were used in sets: SEQ ID No:1 (Forward) and SEQ ID No: 2 (Reverse) in the case of PTX3; base SEQ ID No:3 (Forward) and SEQ ID No: 4 (Reverse) in the case of GAPDH.

[4] = system: PTX3 gene; assay: PTX3 gene expression by RT-PCR and agarose gel electrophoresis in HCASMC; format: cell-based, human; conditions: 1 μmol/L and 10 μmol/L, both 8 hours later and 24 hours later
Procedure: as §3, §4
PCR: Using “Expanded™ High Fidelity PCR System” (trade name, manufactured of Boehringer Mannheim AG), thermal cycling was conducted through 25 cycles according to the following schemes: 95° C. for 1 minute—57° C. for 1 minute—72° C. for 1 minute. […]

[5] = system: PTX3 gene; conditions: constant expression in synovial cells; Clin. Exp. Immunol., 119(1), 196-202 (2000); cited from earlier work

## O=C(O)C[C@H](O)C[C@H](O)/C=C/c1c(C2CC2)nc2ccccc2c1-c1ccc(F)cc1 [pitavastatin calcium, (3R,5S, 6 E)-7-[2-cyclopropyl-4-(4-fluorophenyl)-3-quinolyl]-3,5-dihydroxy-6-heptenoic acid]
[1]; 1.1 μmol/L
  expression of PTX3 gene in HUVEC: 32.7
[2]; 1.1 μmol/L
  expression of PTX3 gene in HCASMC: 452.5
[3]; 1 μmol/L and 10 μmol/L
  concentration dependency of PTX3 gene expression suppression in HUVEC (RT-PCR): concentration-dependently suppressed
[3]; 1.1 μmol/L
  expression of PTX3 gene in HUVEC compared with the control (RT-PCR): suppressed
[4]
  concentration dependency of PTX3 gene expression suppression in HCASMC (RT-PCR): concentration-dependently suppressed

## TGF-β
[5]
  expression of PTX3 gene in synovial cells of a rheumatoid arthritis patient: suppressed

## IFN-γ: inteferon-γ (IFN-γ), known from literature to suppress PTX3 gene expression
[5]
  expression of PTX3 gene in synovial cells of a rheumatoid arthritis patient: suppressed

## CC(C)c1c(C(=O)Nc2ccccc2)c(-c2ccccc2)c(-c2ccc(F)cc2)n1CC[C@@H](O)C[C@@H](O)CC(=O)O [atorvastatin calcium, (3R,5R)-7-[2-(4-fluorophenyl)-5-isopropyl-3-phenyl-4-phenylcarbamonyl-1H-pyrrol-1-yl]-3,5-dihydroxyheptanoic acid]
[1]; 6.6 μmol/L
  expression of PTX3 gene in HUVEC: 39.2
[2]; 6.6 μmol/L
  expression of PTX3 gene in HCASMC: 432.1
[3]; 6.6 μmol/L
  expression of PTX3 gene in HUVEC compared with the control (RT-PCR): suppressed
